Assay: Initial experiments: drug release of ezetimibe having particle size about 25 microns
Type: physicochemical
Conditions: ezetimibe particle size about 25 microns
Description: The pharmaceutical compositions of present invention can be prepared with techniques well known in the art, preferably, direct compression, dry granulation and wet granulation.

**Q.** For `O=C1[C@H](CC[C@H](O)c2ccc(F)cc2)[C@@H](c2ccc(O)cc2)N1c1ccc(F)cc1` [ezetimibe, Ezetimibe], which “release of the drug” value is on record?
**A.** 40-50%

From patent US20070275052A1, “Pharmaceutical compositions containing sterol inhibitors” (Glenmark Pharmaceuticals Limited, priority 2006, published 2007)
